# Measurements as given in US20230024096A1, “BIFUNCTIONAL COMPOUNDS FOR THE TREATMENT OF CANCER” (Hoffmann-La Roche Inc., priority 2019, published 2023).
# Biological target: T1, SMARCA2 (Homo sapiens, UniProt P51531)
# T1 construct: endogenous in cells; host or cells: HT1080 (CRISPR HiBiT knock-in clone, generated in house)
# Test: SMARCA2 HiBiT degradation assay (cellular)
# Format: cell-based
# Details: table head names A549; for DC50: 6 h incubation, HiBiT-tagged SMARCA2, luminescence read-out, read-out: HiBit A549 SMARCA2 IP (nM) 6 h; for Emax: A549, 6 h incubation, Emax = amount of residual protein remaining in the cell following compound treatment
# T1 sequence (P51531 whole entry): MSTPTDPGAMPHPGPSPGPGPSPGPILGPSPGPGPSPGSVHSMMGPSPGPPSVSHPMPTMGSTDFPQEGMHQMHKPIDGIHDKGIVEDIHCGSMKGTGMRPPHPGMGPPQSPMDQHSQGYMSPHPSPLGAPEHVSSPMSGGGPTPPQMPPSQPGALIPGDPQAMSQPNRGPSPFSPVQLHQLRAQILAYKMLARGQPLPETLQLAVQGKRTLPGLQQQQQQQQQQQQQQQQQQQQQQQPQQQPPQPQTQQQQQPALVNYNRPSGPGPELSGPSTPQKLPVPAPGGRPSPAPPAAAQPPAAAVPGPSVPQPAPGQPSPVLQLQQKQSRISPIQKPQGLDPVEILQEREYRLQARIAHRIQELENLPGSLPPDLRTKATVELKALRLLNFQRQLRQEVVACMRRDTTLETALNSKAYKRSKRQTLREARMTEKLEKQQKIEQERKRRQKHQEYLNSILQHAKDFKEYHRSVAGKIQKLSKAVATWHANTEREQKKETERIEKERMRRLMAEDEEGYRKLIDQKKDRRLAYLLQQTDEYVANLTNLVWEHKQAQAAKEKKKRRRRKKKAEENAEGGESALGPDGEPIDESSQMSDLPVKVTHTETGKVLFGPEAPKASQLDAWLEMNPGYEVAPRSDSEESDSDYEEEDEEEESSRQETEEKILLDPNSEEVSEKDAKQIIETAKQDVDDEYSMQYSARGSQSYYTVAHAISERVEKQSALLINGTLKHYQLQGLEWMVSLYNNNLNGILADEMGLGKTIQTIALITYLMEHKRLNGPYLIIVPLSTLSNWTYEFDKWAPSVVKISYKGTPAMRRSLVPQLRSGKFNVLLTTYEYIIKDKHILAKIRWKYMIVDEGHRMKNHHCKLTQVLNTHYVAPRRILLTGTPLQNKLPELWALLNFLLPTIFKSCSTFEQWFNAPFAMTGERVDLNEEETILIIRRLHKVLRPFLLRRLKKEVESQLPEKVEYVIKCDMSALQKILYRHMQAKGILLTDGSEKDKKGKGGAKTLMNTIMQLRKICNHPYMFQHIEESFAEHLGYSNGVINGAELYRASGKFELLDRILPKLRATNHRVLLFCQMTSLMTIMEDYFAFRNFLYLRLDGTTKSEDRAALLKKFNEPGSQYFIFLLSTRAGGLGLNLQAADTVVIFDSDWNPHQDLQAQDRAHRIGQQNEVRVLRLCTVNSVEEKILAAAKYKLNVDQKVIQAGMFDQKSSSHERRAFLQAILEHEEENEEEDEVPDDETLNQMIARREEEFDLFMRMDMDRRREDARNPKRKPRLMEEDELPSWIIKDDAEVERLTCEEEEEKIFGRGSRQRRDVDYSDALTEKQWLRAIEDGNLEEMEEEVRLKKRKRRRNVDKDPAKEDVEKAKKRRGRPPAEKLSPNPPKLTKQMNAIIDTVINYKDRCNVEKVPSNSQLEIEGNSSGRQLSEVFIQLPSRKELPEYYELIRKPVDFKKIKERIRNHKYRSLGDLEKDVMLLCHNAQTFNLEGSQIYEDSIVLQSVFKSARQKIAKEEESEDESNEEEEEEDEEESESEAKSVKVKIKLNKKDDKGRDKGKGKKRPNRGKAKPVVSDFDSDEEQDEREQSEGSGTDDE
Compound,DC50,Emax
"Nc1nnc(-c2ccccc2O)cc1OC1CCCN(c2ccc(N3CCN(CCCCCCCCCn4cc(COc5cccc6c5C(=O)N(C5CCC(=O)NC5=O)C6=O)nn4)CC3)cc2)C1 (centres unmarked) [Example 65, 4-[[1-[9-[4-[4-[3-[3-amino-6-(2-hydroxyphenyl)pyridazin-4-yl]oxy-1-piperidyl]phenyl]piperazin-1-yl]nonyl]triazol-4-yl]methoxy]-2-(2,6-dioxo-3-piperidyl)isoindoline-1,3-dione]",115 nM,31%
"CC(Oc1cccc2c1C(=O)N(C1CCC(=O)NC1=O)C2=O)c1cn(CCC(=O)N2CCN(CCCN3CCN(c4ccc(N5CCC[C@H](Oc6cc(-c7ccccc7O)nnc6N)C5)cc4)CC3)CC2)nn1 (mixture of isomers) [Example 204, 2-(2,6-dioxo-3-piperidyl)-4-[1-[1-[3-oxo-3-[4-[3-[4-[4-[rac-(3S)-3-[3-amino-6-(2-hydroxyphenyl)pyridazin-4-yl]oxy-1-piperidyl]phenyl]piperazin-1-yl]propyl]piperazin-1-yl]propyl]triazol-4-yl]ethoxy]isoindoline-1,3-dione]",907 nM,39%
"Nc1nnc(-c2ccccc2O)cc1N1CC(Oc2cccc(N3CCN(C(=O)CCCCCCCCCNc4cccc5c4C(=O)N(C4CCC(=O)NC4=O)C5=O)CC3)c2)C1 (centres unmarked) [Example 39, 4-[[10-[4-[3-[1-[3-amino-6-(2-hydroxyphenyl)pyridazin-4-yl]azetidin-3-yl]oxyphenyl]piperazin-1-yl]-10-oxo-decyl]amino]-2-(2,6-dioxo-3-piperidyl)isoindoline-1,3-dione]",718 nM,63%
"Nc1nnc(-c2ccccc2O)cc1N1CC2CCC(C1)N2c1cccc(OCCN2CCN(C(=O)N3CCN(c4ccc(OC5CCC(=O)NC5=O)cc4)CC3)CC2)c1 (racemic) [Example 51, rac-3-[4-[4-[4-[2-[3-[3-[3-amino-6-(2-hydroxyphenyl)pyridazin-4-yl]-3,8-diazabicyclo[3.2.1]octan-8-yl]phenoxy]ethyl]piperazine-1-carbonyl]piperazin-1-yl]phenoxy]piperidine-2,6-dione]",86 nM,54%
"Nc1nnc(-c2ccccc2O)cc1OC1CCCN(c2ccc(N3CCN(C(=O)CCCCCCCCCCCCCCn4cc(CNc5cccc6c5C(=O)N(C5CCC(=O)NC5=O)C6=O)nn4)CC3)cc2)C1 (centres unmarked) [Example 8, 4-[[1-[15-[4-[4-[3-[3-amino-6-(2-hydroxyphenyl)pyridazin-4-yl]oxy-1-piperidyl]phenyl]piperazin-1-yl]-15-oxo-pentadecyl]triazol-4-yl]methylamino]-2-(2,6-dioxo-3-piperidyl)isoindoline-1,3-dione]",254 nM,65%
"Nc1nnc(-c2ccccc2O)cc1N1CC2CCC(C1)N2c1cccc(OCCN2CCN(C(=O)N3CCN(c4ccc(NC5CCC(=O)NC5=O)cc4)CC3)CC2)c1 (racemic) [Example 81, rac-3-[4-[4-[4-[2-[3-[3-[3-amino-6-(2-hydroxyphenyl)pyridazin-4-yl]-3,8-diazabicyclo[3.2.1]octan-8-yl]phenoxy]ethyl]piperazine-1-carbonyl]piperazin-1-yl]anilino]piperidine-2,6-dione]",16 nM,56%
"Nc1nnc(-c2ccccc2O)cc1OC1CCCN(c2ccc(N3CCN(CCCCC(=O)N4CCC(n5cc(COc6cccc7c6C(=O)N(C6CCC(=O)NC6=O)C7=O)nn5)CC4)CC3)cc2)C1 (racemic) [Example 138, 2-(2,6-dioxo-3-piperidyl)-4-[[1-[1-[5-[4-[4-[rac-(3S)-3-[3-amino-6-(2-hydroxyphenyl)pyridazin-4-yl]oxy-1-piperidyl]phenyl]piperazin-1-yl]pentanoyl]-4-piperidyl]triazol-4-yl]methoxy]isoindoline-1,3-dione]",678 nM,42%
"Nc1nnc(-c2cc(F)ccc2O)cc1N1C2CCC1CN(c1cccc(OCCN3CCN(CC4CCN(c5ccc6c(c5)C(=O)N(C5CCC(=O)NC5=O)C6=O)CC4)CC3)c1)C2 (centres unmarked) [Example 57, 5-[4-[[4-[2-[3-[8-[3-amino-6-(5-fluoro-2-hydroxy-phenyl)pyridazin-4-yl]-3,8-diazabicyclo[3.2.1]octan-3-yl]phenoxy]ethyl]piperazin-1-yl]methyl]-1-piperidyl]-2-(2,6-dioxo-3-piperidyl)isoindoline-1,3-dione]",406 nM,67%
"Nc1nnc(-c2ccccc2O)cc1N1CC2CCC(C1)N2c1cccc(OCCN2CCN(C(=O)CCC(=O)N3CCC(Oc4cccc5c4C(=O)N(C4CCC(=O)NC4=O)C5=O)CC3)CC2)c1 (racemic) [Example 9, rac-4-[[1-[4-[4-[2-[3-[3-[3-amino-6-(2-hydroxyphenyl)pyridazin-4-yl]-3,8-diazabicyclo[3.2.1]octan-8-yl]phenoxy]ethyl]piperazin-1-yl]-4-oxo-butanoyl]-4-piperidyl]oxy]-2-(2,6-dioxo-3-piperidyl)isoindoline-1,3-dione]",339 nM,58%
"Nc1nnc(-c2ccccc2O)cc1N1CCC(C(=O)N2CCC(C(=O)N3CCN(Cc4ccc5c(c4)C(=O)N(C4CCC(=O)NC4=O)C5=O)CC3)CC2)(c2ccccc2)CC1 (centres unmarked) [Example 174, 5-((4-(1-(1-(3-amino-6-(2-hydroxyphenyl)pyridazin-4-yl)-4-phenylpiperidine-4-carbonyl)piperidine-4-carbonyl)piperazin-1-yl)methyl)-2-(2,6-dioxopiperidin-3-yl)isoindoline-1,3-dione]",123 nM,54%
"CC(Oc1cccc2c1C(=O)N(C1CCC(=O)NC1=O)C2=O)c1cn(C2CN(C(=O)CCCCN3CCN(c4ccc(N5CCC[C@H](Oc6cc(-c7ccccc7O)nnc6N)C5)cc4)CC3)C2)nn1 (mixture of isomers) [Example 199, 2-(2,6-dioxo-3-piperidyl)-4-[1-[1-[1-[5-[4-[4-[rac-(3S)-3-[3-amino-6-(2-hydroxyphenyl)pyridazin-4-yl]oxy-1-piperidyl]phenyl]piperazin-1-yl]pentanoyl]azetidin-3-yl]triazol-4-yl]ethoxy]isoindoline-1,3-dione]",107 nM,62%
"Nc1nnc(-c2ccccc2O)cc1N1CC2CCC(C1)N2c1cccc(CN2CCN(C(=O)C3CCN(c4ccc5c(c4)C(=O)N(C4CCC(=O)NC4=O)C5=O)CC3)CC2)c1 (racemic) [Example 46, rac-5-[4-[4-[[3-[3-[3-Amino-6-(2-hydroxyphenyl)pyridazin-4-yl]-3,8-diazabicyclo[3.2.1]octan-8-yl]phenyl]methyl]piperazine-1-carbonyl]-1-piperidyl]-2-(2,6-dioxo-3-piperidyl)isoindoline-1,3-dione]",12 nM,24%
"Nc1nnc(-c2ccccc2O)cc1N1CCC(C(=O)N2CCC(C(=O)N3CCC(c4ccc(NC5CCC(=O)NC5=O)cn4)CC3)CC2)(c2ccccc2)CC1 (centres unmarked) [Example 177, 3-((6-(1-(1-(1-(3-amino-6-(2-hydroxyphenyl)pyridazin-4-yl)-4-phenylpiperidine-4-carbonyl)piperidine-4-carbonyl)piperidin-4-yl)pyridin-3-yl)amino)piperidine-2,6-dione]",174 nM,69%

# Second part, the compound after the results:
DC50,Emax,Compound
77 nM,57%,"Nc1nnc(-c2ccccc2O)cc1N1CCC(CNC(=O)CC2CCN(c3ccc4c(c3)C(=O)N(C3CCC(=O)NC3=O)C4=O)CC2)(c2ccccc2)CC1 (centres unmarked) [Example 77, N-((1-(3-amino-6-(2-hydroxyphenyl)pyridazin-4-yl)-4-phenylpiperidin-4-yl)methyl)-2-(1-(2-(2,6-dioxopiperidin-3-yl)-1,3-dioxoisoindolin-5-yl)piperidin-4-yl)acetamide]"
73 nM,26%,"CC(Oc1cccc2c1C(=O)N(C1CCC(=O)NC1=O)C2=O)c1cn(CCCCCCCCCN2CCN(c3ccc(N4CCC[C@H](Oc5cc(-c6ccccc6O)nnc5N)C4)cc3)CC2)nn1 (mixture of isomers) [Example 126, 2-(2,6-dioxo-3-piperidyl)-4-[1-[1-[9-[4-[4-[rac-(3S)-3-[3-amino-6-(2-hydroxyphenyl)pyridazin-4-yl]oxy-1-piperidyl]phenyl]piperazin-1-yl]nonyl]triazol-4-yl]ethoxy]isoindoline-1,3-dione]"
66 nM,60%,"Nc1nnc(-c2ccccc2O)cc1N1CCN(c2cccc(OCCN3CCN(C(=O)CCCCCCNc4cccc5c4C(=O)N(C4CCC(=O)NC4=O)C5=O)CC3)c2)C2(CC2)C1 (centres unmarked) [Example 5, 4-[[7-[4-[2-[3-[7-[3-amino-6-(2-hydroxyphenyl)pyridazin-4-yl]-4,7-diazaspiro[2.5]octan-4-yl]phenoxy]ethyl]piperazin-1-yl]-7-oxo-heptyl]amino]-2-(2,6-dioxo-3-piperidyl)isoindoline-1,3-dione]"
37 nM,38%,"Nc1nnc(-c2ccccc2O)cc1N1CCN(c2cccc(CN3CCN(C(=O)COc4ccc5c(c4)C(=O)N(C4CCC(=O)NC4=O)C5=O)CC3)c2)C2(CC2)C1 (centres unmarked) [Example 129, 5-(2-(4-(3-(7-(3-amino-6-(2-hydroxyphenyl)pyridazin-4-yl)-4,7-diazaspiro[2.5]octan-4-yl)benzyl)piperazin-1-yl)-2-oxoethoxy)-2-(2,6-dioxopiperidin-3-yl)isoindoline-1,3-dione]"
37 nM,54%,"Nc1nnc(-c2ccccc2O)cc1N1CC(Oc2ccc(CN3CCN(C(=O)CCCCCCNc4cccc5c4C(=O)N(C4CCC(=O)NC4=O)C5=O)CC3)cc2)C1 (centres unmarked) [Example 67, 4-[[7-[4-[[4-[1-[3-amino-6-(2-hydroxyphenyl)pyridazin-4-yl]azetidin-3-yl]oxyphenyl]methyl]piperazin-1-yl]-7-oxo-heptyl]amino]-2-(2,6-dioxo-3-piperidyl)isoindoline-1,3-dione]"
35 nM,50%,"Nc1nnc(-c2ccccc2O)cc1N1CCC(C(=O)N2CCC(NC(=O)C3CCN(c4ccc5c(c4)C(=O)N(C4CCC(=O)NC4=O)C5=O)CC3)CC2)(c2ccccc2)CC1 (centres unmarked) [Example 119, N-(1-(1-(3-amino-6-(2-hydroxyphenyl)pyridazin-4-yl)-4-phenylpiperidine-4-carbonyl)piperidin-4-yl)-1-(2-(2,6-dioxopiperidin-3-yl)-1,3-dioxoisoindolin-5-yl)piperidine-4-carboxamide]"
